Measurements as given in patent US9056843B2, “Trifluoromethyl-oxadiazole derivatives and their use in the treatment of disease” (NOVARTIS AG, priority 2011, dated 2015).

What was measured:
Type in all cases: biochemical
Human recombinant HDAC4 = Human recombinant HDAC4 (Homo sapiens (Human), UniProt P56524); experiment: Test 2: HDAC4 assay (fluorogenic substrate, 5 μM acetyl-Gly-Ala-Lys(ε-trifluoroacetyl)-AMC); details: Test 2 (values without asterisk)
Procedure: Test 2: HDAC4 Assay Description
(§1) Control wells with HDAC4 only (positive control) and without HDAC4 (negative control) were included on the microplate. Bovine trypsin (4.5 μl of a 300 nM solution) was added and the plate incubated for additional 15 minutes at room temperature. The plate was placed in a fluorescence microplate reader, and read at an excitation wavelength of 360 nm and an emission wavelength of 450 nm with a 10 nm bandpath. Fluorescence values for all wells containing HDAC4 (positive control and wells with test compound) were corrected by subtracting negative control fluorescence values, and IC50 values were calculated by fitting the dose-response curves to a 4-parameter logistic function.

[1] = target: Human recombinant full length HDAC1 (Homo sapiens (Human), UniProt Q13547); experiment: Test 3: HDAC1 assay; details: substrate 5 μM acetyl-Gly-Ala-Lys(acetyl)-AMC
Procedure: as §1
Test 3: HDAC1 Assay Description
A similar assay procedure as described in Test 2 was used for HDAC1. Human recombinant full length HDAC1 expressed in a baculovirus expression system was purchased from BPS BioSciences (San Diego, Calif., U.S.A.). The substrate used in the […] assay was 5 μM of acetyl-Gly-Ala-Lys(acetyl)-AMC.

[2] = target: Human recombinant full length HDAC6 (Homo sapiens (Human), UniProt Q9UBN7); experiment: Test 4: HDAC6 assay; details: Test 4; substrate 5 μM acetyl-Gly-Ala-Lys(acetyl)-AMC
Procedure: as §1
Test 4: HDAC6 Assay Description
A similar assay procedure as described in Test 2 was used for HDAC6. Human recombinant full length HDAC6 expressed in a baculovirus expression system was purchased from BPS BioSciences (San Diego, Calif., U.S.A.). The substrate used in the […] assay was 5 μM of acetyl-Gly-Ala-Lys(acetyl)-AMC.

Chain of Human recombinant full length HDAC1 (Q13547 whole entry): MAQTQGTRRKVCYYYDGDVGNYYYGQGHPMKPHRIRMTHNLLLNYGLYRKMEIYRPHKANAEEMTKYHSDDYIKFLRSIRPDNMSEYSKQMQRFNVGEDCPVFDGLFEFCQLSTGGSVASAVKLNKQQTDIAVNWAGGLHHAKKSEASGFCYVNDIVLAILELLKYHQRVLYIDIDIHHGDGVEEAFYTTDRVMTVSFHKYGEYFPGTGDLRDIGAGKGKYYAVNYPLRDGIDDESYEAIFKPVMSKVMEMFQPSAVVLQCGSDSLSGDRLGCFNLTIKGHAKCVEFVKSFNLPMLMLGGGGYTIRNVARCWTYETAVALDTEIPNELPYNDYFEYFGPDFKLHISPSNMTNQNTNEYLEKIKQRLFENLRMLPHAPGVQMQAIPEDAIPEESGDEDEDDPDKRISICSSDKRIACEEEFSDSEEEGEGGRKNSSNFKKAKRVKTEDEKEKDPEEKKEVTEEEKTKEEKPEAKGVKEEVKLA
Chain of Human recombinant full length HDAC6 (Q9UBN7 whole entry): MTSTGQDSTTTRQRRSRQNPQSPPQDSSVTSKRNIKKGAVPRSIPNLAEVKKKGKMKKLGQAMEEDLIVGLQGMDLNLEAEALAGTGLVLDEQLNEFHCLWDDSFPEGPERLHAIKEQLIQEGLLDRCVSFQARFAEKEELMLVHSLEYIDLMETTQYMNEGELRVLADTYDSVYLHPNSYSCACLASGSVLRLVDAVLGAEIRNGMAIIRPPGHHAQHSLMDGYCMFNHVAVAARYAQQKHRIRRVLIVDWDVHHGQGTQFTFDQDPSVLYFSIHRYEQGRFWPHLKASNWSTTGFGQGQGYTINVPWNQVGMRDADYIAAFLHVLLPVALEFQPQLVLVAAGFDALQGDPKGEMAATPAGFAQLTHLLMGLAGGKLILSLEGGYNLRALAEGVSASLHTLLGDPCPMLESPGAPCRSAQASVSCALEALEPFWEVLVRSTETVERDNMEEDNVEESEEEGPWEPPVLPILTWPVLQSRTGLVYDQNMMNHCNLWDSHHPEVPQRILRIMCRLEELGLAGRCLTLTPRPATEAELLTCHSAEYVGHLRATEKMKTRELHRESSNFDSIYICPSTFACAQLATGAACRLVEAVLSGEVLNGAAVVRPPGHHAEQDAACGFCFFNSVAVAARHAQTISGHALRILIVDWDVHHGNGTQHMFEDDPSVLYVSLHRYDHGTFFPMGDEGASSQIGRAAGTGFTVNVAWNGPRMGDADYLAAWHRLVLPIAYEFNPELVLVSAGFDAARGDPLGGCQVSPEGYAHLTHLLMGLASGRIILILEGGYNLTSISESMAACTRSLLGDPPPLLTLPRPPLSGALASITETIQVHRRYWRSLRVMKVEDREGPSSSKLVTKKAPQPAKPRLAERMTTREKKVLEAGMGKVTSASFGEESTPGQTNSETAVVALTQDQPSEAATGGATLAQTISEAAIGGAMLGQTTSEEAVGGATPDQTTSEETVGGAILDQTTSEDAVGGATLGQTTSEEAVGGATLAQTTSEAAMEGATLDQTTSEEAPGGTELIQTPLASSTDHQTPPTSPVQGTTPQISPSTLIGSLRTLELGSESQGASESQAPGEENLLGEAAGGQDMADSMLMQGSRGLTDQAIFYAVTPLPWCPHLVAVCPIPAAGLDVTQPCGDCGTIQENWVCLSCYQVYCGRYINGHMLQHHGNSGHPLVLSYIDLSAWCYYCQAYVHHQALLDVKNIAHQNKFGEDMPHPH
Chain of Human recombinant HDAC4 (P56524 2-1084): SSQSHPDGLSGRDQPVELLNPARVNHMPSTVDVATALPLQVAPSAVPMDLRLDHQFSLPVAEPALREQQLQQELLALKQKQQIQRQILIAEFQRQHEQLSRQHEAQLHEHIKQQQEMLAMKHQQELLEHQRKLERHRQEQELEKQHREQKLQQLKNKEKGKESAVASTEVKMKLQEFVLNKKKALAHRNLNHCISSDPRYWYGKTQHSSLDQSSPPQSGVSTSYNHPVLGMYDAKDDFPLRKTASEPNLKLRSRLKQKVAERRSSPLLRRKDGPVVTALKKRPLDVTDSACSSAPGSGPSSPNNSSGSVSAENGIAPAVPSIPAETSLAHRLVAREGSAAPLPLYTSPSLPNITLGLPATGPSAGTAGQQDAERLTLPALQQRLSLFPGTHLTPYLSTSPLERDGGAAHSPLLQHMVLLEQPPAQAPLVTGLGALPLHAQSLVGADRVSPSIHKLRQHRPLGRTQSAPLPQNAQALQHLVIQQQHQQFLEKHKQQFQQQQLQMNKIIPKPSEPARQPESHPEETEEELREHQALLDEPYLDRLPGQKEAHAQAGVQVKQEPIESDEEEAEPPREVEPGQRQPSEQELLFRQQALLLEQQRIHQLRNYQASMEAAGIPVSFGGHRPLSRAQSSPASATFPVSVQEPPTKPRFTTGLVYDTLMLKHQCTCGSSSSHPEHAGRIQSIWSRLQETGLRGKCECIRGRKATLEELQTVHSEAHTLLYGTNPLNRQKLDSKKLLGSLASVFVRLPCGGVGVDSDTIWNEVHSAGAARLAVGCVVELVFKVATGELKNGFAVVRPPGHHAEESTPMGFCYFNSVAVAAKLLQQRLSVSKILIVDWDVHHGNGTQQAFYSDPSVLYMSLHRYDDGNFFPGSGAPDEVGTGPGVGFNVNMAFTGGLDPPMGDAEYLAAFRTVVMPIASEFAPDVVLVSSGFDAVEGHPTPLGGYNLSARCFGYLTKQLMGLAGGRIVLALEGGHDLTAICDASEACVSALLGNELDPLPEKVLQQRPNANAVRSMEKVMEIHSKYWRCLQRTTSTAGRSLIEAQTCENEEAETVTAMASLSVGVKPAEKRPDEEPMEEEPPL

Row | IC50 (Human recombinant HDAC4) [nM] | IC50 [1] [nM] | IC50 [2] [nM] | Structure (SMILES)
1 | 520 | > 10000 | 6500 | O=C(NC1CCOCC1)c1ccc(-c2noc(C(F)(F)F)n2)cc1 [Example 57, N-(tetrahydro-2H-pyran-4-yl)-4-(5-(trifluoromethyl)-1,2,4-oxadiazol-3-yl)benzamide]
2 | 2500 | > 10000 | 2200 | CC(C)(C)OC(=O)NC1CCCCC1NC(=O)c1ccc(-c2noc(C(F)(F)F)n2)cc1 (stereo not drawn) [Example 60, tert-butyl (2-(4-(5-(trifluoromethyl)-1,2,4-oxadiazol-3-yl)benzamido)cyclohexyl)carbamate]
3 | 300 | > 10000 | 6200 | CN(C)CCCNS(=O)(=O)c1ccc(-c2noc(C(F)(F)F)n2)cc1 [Example 113, N-(3-(dimethylamino)propyl)-4-(5-(trifluoromethyl)-1,2,4-oxadiazol-3-yl)benzenesulfonamide]
4 | 8.9 | > 10000 | 3900 | CCN(CC)C[C@@H](C)NC(=O)c1ccc(-c2noc(C(F)(F)F)n2)cc1F [Example 126, (R)—N-(1-(diethylamino)propan-2-yl)-2-fluoro-4-(5-(trifluoromethyl)-1,2,4-oxadiazol-3-yl)benzamide]
5 | 3.6 | 1800 | 3000 | CN1CC[C@@H](NC(=O)c2ccc(-c3noc(C(F)(F)F)n3)cc2)C1 [Example 153, (R)—N-(1-methylpyrrolidin-3-yl)-4-(5-(trifluoromethyl)-1,2,4-oxadiazol-3-yl)benzamide]
6 | 1400 | > 10000 | > 10000 | CC(C)(C)OC(=O)N1CCC(NC(=O)c2ccc(-c3noc(C(F)(F)F)n3)cc2)CC1 [Example 59, 4-[4-(5-trifluoromethyl-[1,2,4]oxadiazol-3-yl)-benzoylamino]-piperidine-1-carboxylic acid tert-butyl ester]
7 | 1200 | > 10000 | > 10000 | CC(C)CNC(=O)c1ccc(-c2noc(C(F)(F)F)n2)cc1 [Example 27, N-isobutyl-4-(5-(trifluoromethyl)-1,2,4-oxadiazol-3-yl)benzamide]
8 | 1200 | > 10000 | > 10000 | CN(C)C1CCN(C(=O)c2ccc(-c3noc(C(F)(F)F)n3)cc2)CC1 [Example 39, (4-(dimethylamino)piperidin-1-yl)(4-(5-(trifluoromethyl)-1,2,4-oxadiazol-3-yl)phenyl)methanone]
9 | 920 | > 10000 | > 10000 | O=C(Nc1ccnc(F)c1)c1ccc(-c2noc(C(F)(F)F)n2)cc1 [Example 71, N-(2-fluoropyridin-4-yl)-4-(5-(trifluoromethyl)-1,2,4-oxadiazol-3-yl)benzamide]
10 | 45 | > 10000 | > 10000 | CC(C)[C@H](CN(C)C)NC(=O)c1ccc(-c2noc(C(F)(F)F)n2)cc1F [Example 89, (R)—N-(1-(dimethylamino)-3-methylbutan-2-yl)-2-fluoro-4-(5-(trifluoromethyl)-1,2,4-oxadiazol-3-yl)benzamide]
11 | 85 | 9000 | 2400 | CC(CNC(=O)c1ccc(-c2noc(C(F)(F)F)n2)cc1F)N(C)C (stereo not drawn) [Example 122, N-(2-(dimethylamino)propyl)-2-fluoro-4-(5-(trifluoromethyl)-1,2,4-oxadiazol-3-yl)benzamide]
12 | 140 | > 10000 | 4800 | O=C(Nc1cccnc1)c1ccc(-c2noc(C(F)(F)F)n2)cc1 [Example 48, N-(ppyridin-3-yl)-4-(5-(trifluoromethyl)-1,2,4-oxadiazol-3-yl)benzamide]
13 | 620 | > 10000 | 7200 | C[C@@H](CO)NC(=O)c1ccc(-c2noc(C(F)(F)F)n2)cc1 [Example 50, (S)—N-(1-hydroxyypropan-2-yl)-4-(5-(trifluoromethyl)-1,2,4-oxadiazol-3-yl)benzamide]
14 | 4200 | > 10000 | > 10000 | O=C(c1ccc(-c2noc(C(F)(F)F)n2)cc1)N1CCN(c2ccccc2)CC1 [Example 42, (4-phenylpiperazin-1-yl)(4-(5-(trifluoromethyl)-1,2,4-oxadiazol-3-yl)phenyl)methanone]
15 | 300 | – | – | O=C(N[C@H]1CCNC1)c1ccc(-c2noc(C(F)(F)F)n2)cc1 [Example 87, (S)—N-(pyrrolidin-3-yl)-4-(5-(trifluoromethyl)-1,2,4-oxadiazol-3-yl)benzamide]

More lines, now with the values behind:

Row | Structure (SMILES) | IC50 (Human recombinant HDAC4) [nM] | IC50 [1] [nM] | IC50 [2] [nM]
16 | C[C@H](CN1CCCC1)NC(=O)c1ccc(-c2noc(C(F)(F)F)n2)cc1F [Example 128, (R)-2-fluoro-N-(1-(pyrrolidin-1-yl)propan-2-yl)-4-(5-(trifluoromethyl)-1,2,4-oxadiazol-3-yl)benzamide] | 26 | > 10000 | 4500
17 | CN1C(C)(C)CC(NC(=O)c2ccc(-c3noc(C(F)(F)F)n3)cc2)CC1(C)C [Example 65, N-(1,2,2,6,6-pentamethylpiperidin-4-yl)-4-(5-(trifluoromethyl)-1,2,4-oxadiazol-3-yl)benzamide] | 240 | > 10000 | 4600
18 | CCC(CO)NC(=O)c1ccc(-c2noc(C(F)(F)F)n2)cc1 (stereo not drawn) [Example 56, N-(1-tetrahydroxy-2 H-butan-2-yl)-4-(5-(trifluoromethyl)-1,2,4-oxadiazol-3-yl)benzamide] | 550 | > 10000 | 6800
19 | CCCN(CC)C[C@@H](C)NC(=O)c1ccc(-c2noc(C(F)(F)F)n2)cc1 [Example 145, (R)—N-(1-(ethyl(propyl)amino)propan-2-yl)-4-(5-(trifluoromethyl)-1,2,4-oxadiazol-3-yl)benzamide] | 0.75 | 2400 | 3700
20 | C[C@H](CN1CCCCC1)NC(=O)c1ccc(-c2noc(C(F)(F)F)n2)cc1F [Example 129, (R)-2-fluoro-N-(1-(piperidin-1-yl)propan-2-yl)-4-(5-(trifluoromethyl)-1,2,4-oxadiazol-3-yl)benzamide] | 13 | 9050 | 3000
21 | CN(C)C(=O)Cc1ccc(-c2noc(C(F)(F)F)n2)cc1 [Example 4, N,N-Dimethyl-2-[4-(5-trifluoromethyl-[1,2,4]oxadiazol-3-yl)-phenyl]-acetamide] | 620 | > 10000 | 7900
22 | O=C(c1ccc(-c2noc(C(F)(F)F)n2)cc1)N1CCCCC1 [Example 33, Piperidin-1-yl(4-(5-(trifluoromethyl)-1,2,4-oxadiazol-3-yl)phenyl)methanone] | 400 | > 10000 | > 10000
23 | CC(C)[C@@H](CN(C)C)NC(=O)c1ccc(-c2noc(C(F)(F)F)n2)cc1 [Example 83, (S)—N-(1-(dimethylamino)-3-methylbutan-2-yl)-4-(5-(trifluoromethyl)-1,2,4-oxadiazol-3-yl)benzamide] | 15 | > 10000 | > 10000
24 | O=S(=O)(Nc1ccccc1Cl)c1ccc(-c2noc(C(F)(F)F)n2)cc1 [Example 104, N-(2-chlorophenyl)-4-(5-(trifluoromethyl)-1,2,4-oxadiazol-3-yl)benzenesulfonamide] | 840 | > 10000 | 770
25 | COc1cc(NC(=O)c2ccc(-c3noc(C(F)(F)F)n3)cc2)ccn1 [Example 67, N-(2-methoxypyridin-4-yl)-4-(5-(trifluoromethyl)-1,2,4-oxadiazol-3-yl)benzamide] | 160 | > 10000 | 8300
26 | CN1CCN(C(=O)Cc2ccc(-c3noc(C(F)(F)F)n3)cc2)CC1 [Example 10, 1-(4-methylpiperazin-1-yl)-2-(4-(5-(trifluoromethyl)-1,2,4-oxadiazol-3-yl)phenvyl)ethanone] | 1300 | > 10000 | 5600
27 | CN(C)C(=O)c1ccc(-c2noc(C(F)(F)F)n2)cc1 [Example 1, N,N-dimethyl-4-(5-(trifluoromethyl)-1,2,4-oxadiazol-3-yl)benzamide] | 360 | > 10000 | > 10000
28 | O=S(=O)(Nc1ccccc1F)c1ccc(-c2noc(C(F)(F)F)n2)cc1 [Example 111, N-(2-fluorophenyl)-4-(5-(trifluoromethyl)-1,2,4-oxadiazol-3-yl)benzenesulfonamide] | 290 | > 10000 | 580
29 | C[C@H](CN1CCCC1)NC(=O)c1ccc(-c2noc(C(F)(F)F)n2)cc1 [Example 130, (R)—N-(1-(pyrrolidin-1-yl)propan-2-yl)-4-(5-(trifluoromethyl)-1,2,4-oxadiazol-3-yl)benzamide] | 11 | > 10000 | 9100
30 | CCCN(CCC)C[C@@H](C)NC(=O)c1ccc(-c2noc(C(F)(F)F)n2)cc1 [Example 137, (R)—N-(1-(dipropylamino)propan-2-yl)-4-(5-(trifluoromethyl)-1,2,4-oxadiazol-3-yl)benzamide] | – | 2200 | 3000
